# Laboratory results published in paper PMC6009956, “Design, synthesis and biological activity of N^4-phenylsubstituted-7H-pyrrolo[2,3-d]pyrimidin-4-amines as dual inhibitors of aurora kinase A and epidermal growth factor receptor kinase” (Journal of Enzyme Inhibition and Medicinal Chemistry, 2017).
# Read-outs that look alike come from different tables or passages of the source.
# Assays:
# [1] = molecular target: EGFR (Homo sapiens, UniProt P00533); assay: ADP-Glo kinase assay, EGFR; format: biochemical; set-up: purchased BPS Bioscience (assay run externally by the vendor)
# [2] = molecular target: T1, aurora A kinase (AURKA) (Homo sapiens, UniProt O14965); assay: ADP-Glo kinase assay, Aurora A; format: biochemical
# T1 construct: purchased BPS Bioscience (assay run externally by the vendor)
# T1 sequence (O14965 1-403): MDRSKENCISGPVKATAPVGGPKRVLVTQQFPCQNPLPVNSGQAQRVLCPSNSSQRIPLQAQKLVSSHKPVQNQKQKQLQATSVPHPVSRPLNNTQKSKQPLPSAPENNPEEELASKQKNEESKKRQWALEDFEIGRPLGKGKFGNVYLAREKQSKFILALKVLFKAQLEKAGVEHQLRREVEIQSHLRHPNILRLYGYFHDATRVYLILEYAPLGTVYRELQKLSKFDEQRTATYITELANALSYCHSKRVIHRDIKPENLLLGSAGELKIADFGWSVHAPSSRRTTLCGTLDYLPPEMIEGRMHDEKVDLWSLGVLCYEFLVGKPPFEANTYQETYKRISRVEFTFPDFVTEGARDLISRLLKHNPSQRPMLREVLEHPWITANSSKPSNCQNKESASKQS
# [3] = 10 µM ATP, triplicate, read-out: EGFR IC50 ± SD
# [4] = 10 µM ATP/0.2 mg/ml Poly-Glu-Tyr, read-out: EGFR IC50 (dose-response curve, supplement)
# [5] = 10 µM ATP, triplicate, read-out: AURKA IC50 ± SD
# [6] = 10 µM ATP/0.2 mg/ml Kemptide, read-out: Aurora A IC50 (dose-response curve, supplement)
# Chain of EGFR (P00533 25-1210): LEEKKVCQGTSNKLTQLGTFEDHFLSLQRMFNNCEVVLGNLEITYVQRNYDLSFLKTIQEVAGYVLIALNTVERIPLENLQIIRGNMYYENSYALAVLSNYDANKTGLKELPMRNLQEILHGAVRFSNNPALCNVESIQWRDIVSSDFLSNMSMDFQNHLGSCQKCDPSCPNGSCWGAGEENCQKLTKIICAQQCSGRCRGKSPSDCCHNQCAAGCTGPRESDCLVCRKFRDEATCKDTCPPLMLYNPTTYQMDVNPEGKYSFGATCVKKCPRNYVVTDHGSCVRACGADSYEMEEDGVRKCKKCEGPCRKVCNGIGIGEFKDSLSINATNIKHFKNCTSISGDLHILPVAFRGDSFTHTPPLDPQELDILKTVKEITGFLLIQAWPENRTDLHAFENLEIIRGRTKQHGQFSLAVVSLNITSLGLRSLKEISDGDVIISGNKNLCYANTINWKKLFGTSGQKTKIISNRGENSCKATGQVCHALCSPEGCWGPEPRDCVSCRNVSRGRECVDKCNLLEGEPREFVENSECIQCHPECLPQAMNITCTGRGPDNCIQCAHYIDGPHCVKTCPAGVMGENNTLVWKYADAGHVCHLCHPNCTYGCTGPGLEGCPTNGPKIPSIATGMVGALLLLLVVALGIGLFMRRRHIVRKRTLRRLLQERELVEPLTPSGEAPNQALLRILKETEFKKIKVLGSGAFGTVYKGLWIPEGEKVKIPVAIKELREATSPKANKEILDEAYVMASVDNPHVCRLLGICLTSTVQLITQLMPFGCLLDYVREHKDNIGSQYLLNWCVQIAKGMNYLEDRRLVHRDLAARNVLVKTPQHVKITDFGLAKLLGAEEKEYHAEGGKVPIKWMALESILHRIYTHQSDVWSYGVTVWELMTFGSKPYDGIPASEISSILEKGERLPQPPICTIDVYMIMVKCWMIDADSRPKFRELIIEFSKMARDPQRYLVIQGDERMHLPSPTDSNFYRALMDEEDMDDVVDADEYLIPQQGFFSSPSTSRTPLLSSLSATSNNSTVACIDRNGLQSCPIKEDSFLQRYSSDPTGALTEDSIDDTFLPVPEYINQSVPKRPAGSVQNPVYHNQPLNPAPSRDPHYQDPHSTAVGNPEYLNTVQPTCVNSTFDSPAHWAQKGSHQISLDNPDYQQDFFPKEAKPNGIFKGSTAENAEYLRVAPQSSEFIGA
compound,measurement,setting,value
"Cc1ccc(Nc2ncnc3[nH]ccc23)cc1 [Compound 9, N^4-(4-methylphenyl)-7H-pyrrolo[2,3-d]pyrimidin-4-amine]",IC50,[1]; [3],0.667 ± 0.142 µM
same,IC50,[1]; [4],0.693 µM
same,EGFR % Activity Set1,[1]; Log[nM] 0,103%
same,EGFR % Activity Set2,[1]; Log[nM] 0,98%
same,EGFR % Activity Set3,[1]; Log[nM] 0,105%
same,EGFR % Activity Set1,[1]; Log[nM] 1.0,112%
same,EGFR % Activity Set2,[1]; Log[nM] 1.0,109%
same,EGFR % Activity Set3,[1]; Log[nM] 1.0,103%
same,EGFR % Activity Set1,[1]; Log[nM] 1.5,113%
same,EGFR % Activity Set2,[1]; Log[nM] 1.5,108%
same,EGFR % Activity Set3,[1]; Log[nM] 1.5,95%
same,EGFR % Activity Set1,[1]; Log[nM] 2.0,95%
same,EGFR % Activity Set2,[1]; Log[nM] 2.0,88%
same,EGFR % Activity Set3,[1]; Log[nM] 2.0,81%
same,EGFR % Activity Set1,[1]; Log[nM] 2.5,74%
same,EGFR % Activity Set2,[1]; Log[nM] 2.5,63%
same,EGFR % Activity Set3,[1]; Log[nM] 2.5,67%
same,EGFR % Activity Set1,[1]; Log[nM] 3.0,36%
same,EGFR % Activity Set2,[1]; Log[nM] 3.0,35%
same,EGFR % Activity Set3,[1]; Log[nM] 3.0,43%
same,EGFR % Activity Set1,[1]; Log[nM] 3.5,18%
same,EGFR % Activity Set2,[1]; Log[nM] 3.5,16%
same,EGFR % Activity Set3,[1]; Log[nM] 3.5,23%
same,EGFR % Activity Set1,[1]; Log[nM] 4.0,8%
same,EGFR % Activity Set2,[1]; Log[nM] 4.0,7%
same,EGFR % Activity Set3,[1]; Log[nM] 4.0,10%
same,EGFR % Activity Set1,[1]; Log[nM] 4.5,3%
same,EGFR % Activity Set2,[1]; Log[nM] 4.5,4%
same,EGFR % Activity Set3,[1]; Log[nM] 4.5,3%
same,EGFR % Activity Set1,[1]; Log[nM] 5.0,1%
same,EGFR % Activity Set2,[1]; Log[nM] 5.0,1%
same,EGFR % Activity Set3,[1]; Log[nM] 5.0,2%
same,IC50,[2]; [5],5.45 ± 0.36 µM
same,IC50,[2]; [6],5.4 µM
same,Aurora A % Activity Set1,[2]; Log[nM] 0,101%
same,Aurora A % Activity Set2,[2]; Log[nM] 0,103%
same,Aurora A % Activity Set3,[2]; Log[nM] 0,105%
same,Aurora A % Activity Set1,[2]; Log[nM] 1.0,114%
same,Aurora A % Activity Set2,[2]; Log[nM] 1.0,103%
same,Aurora A % Activity Set3,[2]; Log[nM] 1.0,107%
same,Aurora A % Activity Set1,[2]; Log[nM] 1.5,111%
same,Aurora A % Activity Set2,[2]; Log[nM] 1.5,103%
same,Aurora A % Activity Set3,[2]; Log[nM] 1.5,109%
same,Aurora A % Activity Set1,[2]; Log[nM] 2.0,102%
same,Aurora A % Activity Set2,[2]; Log[nM] 2.0,107%
same,Aurora A % Activity Set3,[2]; Log[nM] 2.0,114%
same,Aurora A % Activity Set1,[2]; Log[nM] 2.5,99%
same,Aurora A % Activity Set2,[2]; Log[nM] 2.5,102%
same,Aurora A % Activity Set3,[2]; Log[nM] 2.5,110%
same,Aurora A % Activity Set1,[2]; Log[nM] 3.0,87%
same,Aurora A % Activity Set2,[2]; Log[nM] 3.0,90%
same,Aurora A % Activity Set3,[2]; Log[nM] 3.0,91%
same,Aurora A % Activity Set1,[2]; Log[nM] 3.5,63%
same,Aurora A % Activity Set2,[2]; Log[nM] 3.5,66%
same,Aurora A % Activity Set3,[2]; Log[nM] 3.5,61%
same,Aurora A % Activity Set1,[2]; Log[nM] 4.0,32%
same,Aurora A % Activity Set2,[2]; Log[nM] 4.0,29%
same,Aurora A % Activity Set3,[2]; Log[nM] 4.0,30%
same,Aurora A % Activity Set1,[2]; Log[nM] 4.5,16%
same,Aurora A % Activity Set2,[2]; Log[nM] 4.5,15%
same,Aurora A % Activity Set3,[2]; Log[nM] 4.5,13%
same,Aurora A % Activity Set1,[2]; Log[nM] 5.0,9%
same,Aurora A % Activity Set2,[2]; Log[nM] 5.0,9%
same,Aurora A % Activity Set3,[2]; Log[nM] 5.0,9%
"Brc1ccc(Nc2ncnc3[nH]ccc23)cc1 [Compound 10, N^4-(4-bromophenyl)-7H-pyrrolo[2,3-d]pyrimidin-4-amine]",IC50,[1]; [3],0.125 ± 0.0164 µM
same,IC50,[1]; [4],0.125 µM
same,EGFR % Activity Set1,[1]; Log[nM] 0,90%
same,EGFR % Activity Set2,[1]; Log[nM] 0,96%
same,EGFR % Activity Set3,[1]; Log[nM] 0,103%
same,EGFR % Activity Set1,[1]; Log[nM] 1.0,97%
same,EGFR % Activity Set2,[1]; Log[nM] 1.0,90%
same,EGFR % Activity Set3,[1]; Log[nM] 1.0,97%
same,EGFR % Activity Set1,[1]; Log[nM] 1.5,78%
same,EGFR % Activity Set2,[1]; Log[nM] 1.5,82%
same,EGFR % Activity Set3,[1]; Log[nM] 1.5,80%
same,EGFR % Activity Set1,[1]; Log[nM] 2.0,53%
same,EGFR % Activity Set2,[1]; Log[nM] 2.0,56%
same,EGFR % Activity Set3,[1]; Log[nM] 2.0,51%
same,EGFR % Activity Set1,[1]; Log[nM] 2.5,30%
same,EGFR % Activity Set2,[1]; Log[nM] 2.5,29%
same,EGFR % Activity Set3,[1]; Log[nM] 2.5,28%
same,EGFR % Activity Set1,[1]; Log[nM] 3.0,14%
same,EGFR % Activity Set2,[1]; Log[nM] 3.0,12%
same,EGFR % Activity Set3,[1]; Log[nM] 3.0,12%
same,EGFR % Activity Set1,[1]; Log[nM] 3.5,6%
same,EGFR % Activity Set2,[1]; Log[nM] 3.5,5%
same,EGFR % Activity Set3,[1]; Log[nM] 3.5,5%
same,EGFR % Activity Set1,[1]; Log[nM] 4.0,2%
same,EGFR % Activity Set2,[1]; Log[nM] 4.0,2%
same,EGFR % Activity Set3,[1]; Log[nM] 4.0,2%
same,EGFR % Activity Set1,[1]; Log[nM] 4.5,1%
same,EGFR % Activity Set2,[1]; Log[nM] 4.5,1%
same,EGFR % Activity Set3,[1]; Log[nM] 4.5,1%
same,EGFR % Activity Set1,[1]; Log[nM] 5.0,1%
same,EGFR % Activity Set2,[1]; Log[nM] 5.0,1%
same,EGFR % Activity Set3,[1]; Log[nM] 5.0,1%
same,IC50,[2]; [5],3.73 ± 0.12 µM
same,IC50,[2]; [6],3.7 µM
same,Aurora A % Activity Set1,[2]; Log[nM] 0,98%
same,Aurora A % Activity Set2,[2]; Log[nM] 0,87%
same,Aurora A % Activity Set3,[2]; Log[nM] 0,96%
same,Aurora A % Activity Set1,[2]; Log[nM] 1.0,97%
same,Aurora A % Activity Set2,[2]; Log[nM] 1.0,94%
same,Aurora A % Activity Set3,[2]; Log[nM] 1.0,94%
same,Aurora A % Activity Set1,[2]; Log[nM] 1.5,100%
same,Aurora A % Activity Set2,[2]; Log[nM] 1.5,95%
same,Aurora A % Activity Set3,[2]; Log[nM] 1.5,95%
same,Aurora A % Activity Set1,[2]; Log[nM] 2.0,102%
same,Aurora A % Activity Set2,[2]; Log[nM] 2.0,97%
same,Aurora A % Activity Set3,[2]; Log[nM] 2.0,101%
same,Aurora A % Activity Set1,[2]; Log[nM] 2.5,100%
same,Aurora A % Activity Set2,[2]; Log[nM] 2.5,93%
same,Aurora A % Activity Set3,[2]; Log[nM] 2.5,98%
same,Aurora A % Activity Set1,[2]; Log[nM] 3.0,82%
same,Aurora A % Activity Set2,[2]; Log[nM] 3.0,83%
same,Aurora A % Activity Set3,[2]; Log[nM] 3.0,82%
same,Aurora A % Activity Set1,[2]; Log[nM] 3.5,60%
same,Aurora A % Activity Set2,[2]; Log[nM] 3.5,55%
same,Aurora A % Activity Set3,[2]; Log[nM] 3.5,53%
same,Aurora A % Activity Set1,[2]; Log[nM] 4.0,20%
same,Aurora A % Activity Set2,[2]; Log[nM] 4.0,19%
same,Aurora A % Activity Set3,[2]; Log[nM] 4.0,20%
same,Aurora A % Activity Set1,[2]; Log[nM] 4.5,9%
same,Aurora A % Activity Set2,[2]; Log[nM] 4.5,9%
same,Aurora A % Activity Set3,[2]; Log[nM] 4.5,9%
same,Aurora A % Activity Set1,[2]; Log[nM] 5.0,10%
same,Aurora A % Activity Set2,[2]; Log[nM] 5.0,10%
same,Aurora A % Activity Set3,[2]; Log[nM] 5.0,9%
